≈ marks a conversion by molar mass, not a printed value. Read-outs that look alike come from different tables or passages of the source.
Key:
[1] = tested on: Haemophilus influenzae Holt; assay: MIC, standard agar-dilution assay, Haemophilus influenzae Holt; format: cell-based; settings: Haemophilus influenzae Holt, ampicillin-sensitive strain
[2] = tested on: Staphylococcus aureus X1.1; assay: MIC, standard agar-dilution assay, Staphylococcus aureus X1.1; format: cell-based
Streptococcus Group 9960 = assay: MIC, standard agar-dilution assay, Streptococcus Group 9960; format: cell-based; settings: Streptococcus Group 9960, agar dilution
[3] = tested on: Staphylococcus aureus V41; assay: MIC, standard agar-dilution assay, Staphylococcus aureus V41; format: cell-based
[4] = tested on: Staphylococcus epidermidis EPI1; assay: MIC, standard agar-dilution assay, Staphylococcus epidermidis EPI1; format: cell-based
[5] = tested on: Staphylococcus aureus X400; assay: MIC, standard agar-dilution assay, Staphylococcus aureus X400; format: cell-based
[6] = tested on: Staphylococcus epidermidis EPI2; assay: MIC, standard agar-dilution assay, Staphylococcus epidermidis EPI2; format: cell-based; settings: Staphylococcus epidermidis EPI2, agar dilution
[7] = tested on: Haemophilus influenzae R252; assay: MIC, standard agar-dilution assay, Haemophilus influenzae R252; format: cell-based; settings: Haemophilus influenzae R252, ampicillin-resistant strain
[8] = tested on: Streptococcus Group D X66; assay: MIC, standard agar-dilution assay, Streptococcus Group D X66; format: cell-based
[9] = tested on: Staphylococcus aureus S13E; assay: MIC, standard agar-dilution assay, Staphylococcus aureus S13E; format: cell-based
[10] = tested on: Streptococcus pyogenes C203; assay: MIC, standard agar-dilution assay, Streptococcus pyogenes C203; format: cell-based; settings: Streptococcus pyogenes C203, agar dilution
[11] = tested on: Pasteurella multocida 17E; assay: MIC, broth-dilution microtiter test, Pasteurella multocida 17E; format: cell-based; settings: Pasteurella multocida 17E, bovine isolate, broth-dilution microtiter
From the text: (§1) The MIC's in Table X were obtained using conventional broth-dilution microtiter tests.

[12] = tested on: Pasteurella hemolytica 22C; assay: MIC, broth-dilution microtiter test, Pasteurella hemolytica 22C; format: cell-based; settings: Pasteurella hemolytica 22C, broth-dilution microtiter
From the text: as §1

Streptococcus bovis 80 = assay: MIC, broth-dilution microtiter test, Streptococcus bovis 80; format: cell-based; settings: Streptococcus bovis 80, broth-dilution microtiter
From the text: as §1

Mycoplasma hyorhinis = assay: MIC, broth-dilution microtiter test, Mycoplasma hyorhinis; format: cell-based
From the text: as §1

Mycoplasma gallisepticum = assay: MIC, broth-dilution microtiter test, Mycoplasma gallisepticum; format: cell-based
From the text: as §1

Staphylococcus aureus = assay: MIC, broth-dilution microtiter test, Staphylococcus aureus; format: cell-based
From the text: as §1

[13] = tested on: Pasteurella multocida 60A; assay: MIC, broth-dilution microtiter test, Pasteurella multocida 60A; format: cell-based; settings: Pasteurella multocida 60A, avian isolate, broth-dilution microtiter
From the text: as §1

[14] = tested on: Streptococcus pneumoniae Park I; assay: microbe, parasite or virus in culture; format: cell-based; settings: Streptococcus pneumoniae Park I, agar dilution
[15] = tested on: Streptococcus pyogenes C203; assay: In vivo protection of mice experimentally infected with S. pyogenes C203; settings: mice, doses given 1 and 4 hours post-infection; for ED50: Streptococcus pyogenes
Procedure: The C-20 modified derivatives of this invention have shown in vivo antimicrobial activity against experimentally-induced infections in laboratory animals. When two doses of test compound were administered to mice experimentally infected with S. pyogenes C203, the activity observed was measured as an ED50 value [effective dose in mg/kg to protect 50% of the test animals: see Warren Wick, et al., J. Bacteriol. 81, 233-235 (1961)].

[16] = Staphylococcus aureus X1.1, agar dilution
[17] = Staphylococcus aureus V41, penicillin-resistant strain, agar dilution
[18] = Staphylococcus epidermidis EPI1, agar dilution
[19] = Staphylococcus aureus X400, methicillin-resistant strain, agar dilution
[20] = Streptococcus Group D X66, agar dilution
[21] = Staphylococcus aureus S13E, agar dilution
[22] = Staphylococcus epidermidis, EPI1

## CCC1OC(=O)CC(O)C(C)C(OC2OC(C)C(O)C(N(C)C)C2O)C(CCOc2ccc(CO)cc2)CC(C)C(=O)C=CC(C)=CC1COC1OC(C)C(O)C(OC)C1OC (stereo not drawn) [Compound 51a]
[1]; agar dilution
  MIC: 64 µg/mL (≈ 72.7 µM)
[2]; [16]
  MIC: 0.5 µg/mL (≈ 0.568 µM)
Streptococcus Group 9960
  MIC: 16 µg/mL (≈ 18.2 µM)
[3]; [17]
  MIC: 0.5 µg/mL (≈ 0.568 µM)
[4]; [18]
  MIC: 0.5 µg/mL (≈ 0.568 µM)
[5]; [19]
  MIC: 1 µg/mL (≈ 1.14 µM)
[6]
  MIC: 0.25 µg/mL (≈ 0.284 µM)
[7]; agar dilution
  MIC: 32 µg/mL (≈ 36.4 µM)
[8]; [20]
  MIC: 16 µg/mL (≈ 18.2 µM)
[9]; [21]
  MIC: 0.5 µg/mL (≈ 0.568 µM)
[10]
  MIC: 0.5 µg/mL (≈ 0.568 µM)

## CCC1OC(=O)CC(O)C(C)C(OC2OC(C)C(OC3CC(C)(O)C(O)C(C)O3)C(N(C)C)C2O)C(CCCl)CC(C)C(=O)C=CC(C)=CC1COC1OC(C)C(O)C(OC)C1OC (stereo not drawn) [Compound 7, 20-DH-DO-20-Chlorotylosin]
[11]; read-out: MIC
  MIC: > 50 µg/mL
[1]; read-out: MIC
  MIC: > 128 µg/mL
[2]; Staphylococcus aureus, X1.1
  MIC: 1 µg/mL (≈ 1.07 µM)
Streptococcus Group 9960; GROUP9960, read-out: MIC
  MIC: > 128 µg/mL
[3]; Staphylococcus aureus, V41
  MIC: 1 µg/mL (≈ 1.07 µM)
[4]; [22]
  MIC: 1 µg/mL (≈ 1.07 µM)
[12]; read-out: MIC
  MIC: > 50 µg/mL
[5]; Staphylococcus aureus, X400
  MIC: 2 µg/mL (≈ 2.14 µM)
Streptococcus bovis 80; Streptococcus equinus, read-out: MIC
  MIC: 12.5 µg/mL (≈ 13.3 µM)
[7]; read-out: MIC
  MIC: > 128 µg/mL
[8]
  MIC: > 128 µg/mL
Mycoplasma hyorhinis; Mycoplasma
  MIC: 50 µg/mL (≈ 53.4 µM)
Mycoplasma gallisepticum; Mycoplasmoides gallisepticum
  MIC: 0.78 µg/mL (≈ 0.833 µM)
Staphylococcus aureus
  MIC: 3.12 µg/mL (≈ 3.33 µM)
[13]; read-out: MIC
  MIC: > 50 µg/mL
[14]; read-out: MIC
  MIC: 32 µg/mL (≈ 34.2 µM)
[15]; C203, sc, subcutaneous, read-out: ED50, Subcutaneous
  ED50: > 6.3 mg/kg
[15]; C203, oral, read-out: ED50, Oral
  ED50: 11 mg/kg
[9]; Staphylococcus aureus, S13E
  MIC: 1 µg/mL (≈ 1.07 µM)
[10]; read-out: MIC
  MIC: 2 µg/mL (≈ 2.14 µM)

## CCC1OC(=O)CC(O)C(C)C(OC2OC(C)C(OC3CC(C)(O)C(O)C(C)O3)C(N(C)C)C2O)C(CCOc2ccc(-c3ccccc3)cc2)CC(C)C(=O)C=CC(C)=CC1COC1OC(C)C(O)C(OC)C1OC (stereo not drawn) [Compound 18, 20-DH-20-O-(p-Phenylphenyl)tylosin]
[1]; read-out: MIC
  MIC: > 128 µg/mL
[2]; Staphylococcus aureus, X1.1
  MIC: 2 µg/mL (≈ 1.87 µM)
Streptococcus Group 9960; GROUP9960, read-out: MIC
  MIC: > 128 µg/mL
[3]; Staphylococcus aureus, V41
  MIC: 2 µg/mL (≈ 1.87 µM)
[4]; [22]
  MIC: 2 µg/mL (≈ 1.87 µM)
[5]; Staphylococcus aureus, X400
  MIC: 2 µg/mL (≈ 1.87 µM)
[6]; read-out: MIC
  MIC: 0.5 µg/mL (≈ 0.467 µM)
[7]; read-out: MIC
  MIC: > 128 µg/mL
[8]; Streptococcus Group D X66, agar dilution, read-out: MIC
  MIC: 8 µg/mL (≈ 7.47 µM)
[14]; read-out: MIC
  MIC: 1 µg/mL (≈ 0.934 µM)
[9]; Staphylococcus aureus, S13E
  MIC: 2 µg/mL (≈ 1.87 µM)
[10]; read-out: MIC
  MIC: 2 µg/mL (≈ 1.87 µM)

## CCC1OC(=O)CC(O)C(C)C(OC2OC(C)C(O)C(N(C)C)C2O)C(CCNC(=O)COc2ccccc2)CC(C)C(=O)C=CC(C)=CC1COC1OC(C)C(O)C(OC)C1OC (stereo not drawn) [Compound 51c, 20-DH-DO-20-(N-phenoxyacetyl)aminodesmycosin]
[1]; agar dilution
  MIC: 8 µg/mL (≈ 8.82 µM)
[2]; [16]
  MIC: 0.25 µg/mL (≈ 0.276 µM)
Streptococcus Group 9960
  MIC: 1 µg/mL (≈ 1.1 µM)
[3]; [17]
  MIC: 0.25 µg/mL (≈ 0.276 µM)
[4]; [18]
  MIC: 0.25 µg/mL (≈ 0.276 µM)
[5]; [19]
  MIC: 0.5 µg/mL (≈ 0.551 µM)
[6]
  MIC: 0.12 µg/mL (≈ 0.132 µM)
[7]; agar dilution
  MIC: 8 µg/mL (≈ 8.82 µM)
[8]; [20]
  MIC: 1 µg/mL (≈ 1.1 µM)
[14]
  MIC: 0.25 µg/mL (≈ 0.276 µM)
[9]; [21]
  MIC: 0.25 µg/mL (≈ 0.276 µM)
[10]
  MIC: 0.25 µg/mL (≈ 0.276 µM)

## CCC(=O)OC1C(OC2C(CCN3C(=O)c4ccccc4C3=O)CC(C)C(=O)C=CC(C)=CC(COC3OC(C)C(O)C(OC)C3OC)C(CC)OC(=O)CC(O)C2C)OC(C)C(OC2CC(C)(O)C(O)C(C)O2)C1N(C)C (stereo not drawn) [Compound 62, 20-DH-DO-20-N-Phthalimido-2'-O-propionyltylosin]
[11]
  MIC: -- (Not active at 50 mcg/ml, the highest level tested)
[1]; agar dilution
  MIC: -- (Not active at 128 mcg/ml, the highest level tested)
[2]; [16]
  MIC: 1 µg/mL (≈ 0.906 µM)
Streptococcus Group 9960
  MIC: -- (Not active at 128 mcg/ml, the highest level tested)
[3]; [17]
  MIC: 1 µg/mL (≈ 0.906 µM)
[4]; [18]
  MIC: 1 µg/mL (≈ 0.906 µM)
[12]
  MIC: -- (Not active at 50 mcg/ml, the highest level tested)
[5]; [19]
  MIC: 2 µg/mL (≈ 1.81 µM)
Streptococcus bovis 80
  MIC: 12.5 µg/mL (≈ 11.3 µM)
[6]
  MIC: 1 µg/mL (≈ 0.906 µM)
[7]; agar dilution
  MIC: -- (Not active at 128 mcg/ml, the highest level tested)
[8]; [20]
  MIC: -- (Not active at 128 mcg/ml, the highest level tested)
Mycoplasma hyorhinis; Mycoplasma hyorhinis, broth-dilution microtiter
  MIC: 50 µg/mL (≈ 45.3 µM)
Mycoplasma gallisepticum; Mycoplasma gallisepticum, broth-dilution microtiter
  MIC: 1.56 µg/mL (≈ 1.41 µM)
Staphylococcus aureus; broth-dilution microtiter
  MIC: 3.12 µg/mL (≈ 2.83 µM)
[13]
  MIC: -- (Not active at 50 mcg/ml, the highest level tested)
[14]
  MIC: 2 µg/mL (≈ 1.81 µM)
[15]; oral
  ED50, Oral: 66 mg/kg × 2
[15]; subcutaneous
  ED50, Subcutaneous: > 6.3 mg/kg × 2
[9]; [21]
  MIC: 1 µg/mL (≈ 0.906 µM)

Reference: patent publication US4443436A, “C-20-Modified macrolide derivatives of the macrolide antibiotics tylosin, desmycosin, macrocin, and lactenocin” (Eli Lilly and Company, priority 1982, dated 1984)
